{"source": "paper PMC8027564", "about": "“A novel luminescence-based β-arrestin recruitment assay for unmodified receptors” (The Journal of Biological Chemistry, 2021)", "key": {"[1]": {"tested_on": "Hek293 cells without cotransfection of any receptor", "assay": "MeNArC and EeNArC negative controls, Hek293 without cotransfection of any receptor", "assay_type": "cell-based, human", "conditions": "10 µM agonist"}, "MOR 11S/T-A": {"tested_on": "MOR 11S/T-A", "assay": "MeNArC β-arrestin2 recruitment assay, MOR 11S/T-A mutant, Hek293", "assay_type": "cell-based"}, "MOR": {"biological_target": "MOR (Homo sapiens, UniProt P35372)", "sequence (P35372 whole entry)": "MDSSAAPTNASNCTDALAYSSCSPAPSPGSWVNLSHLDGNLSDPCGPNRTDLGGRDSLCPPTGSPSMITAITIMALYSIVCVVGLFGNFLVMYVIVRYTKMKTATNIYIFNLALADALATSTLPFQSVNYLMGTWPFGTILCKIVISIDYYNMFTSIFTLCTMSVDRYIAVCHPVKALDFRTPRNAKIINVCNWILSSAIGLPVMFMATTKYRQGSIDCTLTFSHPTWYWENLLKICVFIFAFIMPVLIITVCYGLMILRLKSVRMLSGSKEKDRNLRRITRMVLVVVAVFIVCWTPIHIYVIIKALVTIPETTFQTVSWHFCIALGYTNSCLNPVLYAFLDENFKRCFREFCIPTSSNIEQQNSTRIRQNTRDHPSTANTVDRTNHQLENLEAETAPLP", "sequence (P32121 whole entry partner)": "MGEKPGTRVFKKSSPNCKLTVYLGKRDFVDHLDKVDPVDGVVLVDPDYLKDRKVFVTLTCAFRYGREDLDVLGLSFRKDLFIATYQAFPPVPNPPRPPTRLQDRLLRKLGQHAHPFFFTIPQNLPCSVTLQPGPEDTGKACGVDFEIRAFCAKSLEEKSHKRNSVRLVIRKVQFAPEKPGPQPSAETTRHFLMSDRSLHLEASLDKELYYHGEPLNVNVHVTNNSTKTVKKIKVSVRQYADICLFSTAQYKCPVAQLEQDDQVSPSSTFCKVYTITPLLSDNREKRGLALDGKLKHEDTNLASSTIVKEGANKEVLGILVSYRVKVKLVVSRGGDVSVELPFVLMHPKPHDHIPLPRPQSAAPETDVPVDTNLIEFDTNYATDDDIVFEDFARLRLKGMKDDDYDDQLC", "assay_type": "cell-based"}, "D2R": {"biological_target": "T1, D2R (Homo sapiens, UniProt P14416)", "T1 construct": "expressed in transfected cells; host or cells: Hek293 (D2R cotransfected with GRK2, MeN and ArC)", "T1 sequence (P14416 1-414 isoform P14416-2)": "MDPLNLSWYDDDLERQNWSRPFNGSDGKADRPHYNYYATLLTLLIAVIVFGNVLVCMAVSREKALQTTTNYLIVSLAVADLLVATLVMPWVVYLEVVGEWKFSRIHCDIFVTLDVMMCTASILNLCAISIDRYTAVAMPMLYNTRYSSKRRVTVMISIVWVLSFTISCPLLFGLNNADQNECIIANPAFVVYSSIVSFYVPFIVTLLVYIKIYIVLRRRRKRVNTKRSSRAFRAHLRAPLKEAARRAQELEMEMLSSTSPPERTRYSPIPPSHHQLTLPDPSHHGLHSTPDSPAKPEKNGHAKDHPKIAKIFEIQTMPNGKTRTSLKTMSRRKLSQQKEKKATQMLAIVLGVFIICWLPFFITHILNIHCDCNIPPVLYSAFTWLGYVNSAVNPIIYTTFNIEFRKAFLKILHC", "assay": "cell-based", "assay_type": "cell-based"}, "AT1R [2]": {"biological_target": "T2, AT1R (Homo sapiens, UniProt P30556)", "T2 construct": "signal peptide (N); expressed in transfected cells; host or cells: Hek293", "T2 sequence (P30556 1-359)": "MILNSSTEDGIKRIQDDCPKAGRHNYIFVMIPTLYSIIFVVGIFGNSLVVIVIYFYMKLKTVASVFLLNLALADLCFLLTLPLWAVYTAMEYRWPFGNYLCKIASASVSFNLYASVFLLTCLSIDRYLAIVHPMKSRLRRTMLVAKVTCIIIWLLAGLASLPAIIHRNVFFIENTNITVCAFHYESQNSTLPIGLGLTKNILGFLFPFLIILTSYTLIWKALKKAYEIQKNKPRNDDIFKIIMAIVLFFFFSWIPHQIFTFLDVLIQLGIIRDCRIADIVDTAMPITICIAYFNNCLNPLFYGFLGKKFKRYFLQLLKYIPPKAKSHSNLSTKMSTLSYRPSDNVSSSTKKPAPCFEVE", "assay": "MeNArC β-arrestin membrane recruitment assay, unmodified AT1R, Hek293", "assay_type": "cell-based"}, "FKBP / FRB": {"biological_target": "T3, FKBP / FRB (UniProt P42345+Q62658)", "T3 construct": "expressed in transfected cells; host or cells: Hek293", "T3 sequence (Q62658 3-108)": "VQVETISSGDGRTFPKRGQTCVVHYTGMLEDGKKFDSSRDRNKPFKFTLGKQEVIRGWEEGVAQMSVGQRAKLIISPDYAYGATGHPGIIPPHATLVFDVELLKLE", "T3 sequence (P42345 2012-2144)": "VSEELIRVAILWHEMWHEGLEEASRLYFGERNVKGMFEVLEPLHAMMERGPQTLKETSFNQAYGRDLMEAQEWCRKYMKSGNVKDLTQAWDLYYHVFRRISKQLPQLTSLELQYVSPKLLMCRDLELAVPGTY", "assay": "rapamycin-induced dimerization of FKBP and FRB fused to the N- and C-terminal NanoLuc fragments", "assay_type": "cell-based", "conditions": "50 nM rapamycin; Hek293 cotransfected with both fragments"}, "AT1R [3]": {"biological_target": "T2, AT1R", "assay": "EeNArC β-arrestin early endosome recruitment assay, unmodified AT1R, Hek293", "assay_type": "cell-based", "conditions": "450 mM sucrose, Ang II, early endosomes"}}, "note": "Structures can show the parent of a compound that is named as a salt."}
{"compound": "CC[C@H](C)[C@H](NC(=O)[C@H](Cc1ccc(O)cc1)NC(=O)[C@@H](NC(=O)[C@H](CCCNC(=N)N)NC(=O)[C@@H](N)CC(=O)O)C(C)C)C(=O)N[C@@H](Cc1c[nH]cn1)C(=O)N1CCC[C@H]1C(=O)N[C@@H](Cc1ccccc1)C(=O)O", "note": "[Ang II, Angiotensin II]", "values": [{"measurement": "response in MeNArC and EeNArC assays without receptor", "setting": "[1]", "value": "no response was observed"}]}
{"compound": "C[C@@H](NC(=O)[C@@H](N)Cc1ccc(O)cc1)C(=O)NCC(=O)N(C)[C@@H](Cc1ccccc1)C(=O)NCCO", "note": "[DAMGO, [D-Ala^2, N-MePhe^4, Gly-ol]-enkephalin]", "values": [{"measurement": "pEC50 ± SD", "setting": "MOR 11S/T-A; MOR 11S/T-A, β-arrestin2", "value": "6.82 ± 0.19"}, {"measurement": "efficacy for MOR 11S/T-A compared with WT MOR", "setting": "MOR 11S/T-A; from fold changes", "value": 65, "unit": "%"}, {"measurement": "response in MeNArC and EeNArC assays without receptor", "setting": "[1]", "value": "no response was observed"}, {"measurement": "EC80", "setting": "MOR", "value": 60, "unit": "nM"}]}
{"compound": "CCCN1CCCC(c2cccc(O)c2)C1", "note": "(stereo not shown) [PPP, (3-hydroxyphenyl)-N-propylpiperidine]", "values": [{"measurement": "efficacy compared with dopamine", "setting": "D2R", "value": 10, "unit": "%"}]}
{"compound": "CC(C)C[C@H]1C(=O)N2CCC[C@H]2[C@]2(O)O[C@](NC(=O)[C@@H]3C=C4c5cccc6[nH]c(Br)c(c56)C[C@H]4N(C)C3)(C(C)C)C(=O)N12", "note": "[bromocriptine]", "values": [{"measurement": "EC50", "setting": "D2R", "value": 66.1, "unit": "nM"}, {"measurement": "efficacy compared with dopamine", "setting": "D2R", "value": 46, "unit": "%"}]}
{"compound": "NCCc1ccc(O)c(O)c1", "note": "[dopamine, Dopamine hydrochloride]", "values": [{"measurement": "response in MeNArC and EeNArC assays without receptor", "setting": "[1]", "value": "no response was observed"}]}
{"compound": "CCCc1nc(C(C)(C)O)c(C(=O)O)n1Cc1ccc(-c2ccccc2-c2nnn[nH]2)cc1", "note": "[olmesartan]", "values": [{"measurement": "reversal of agonist-induced β-arrestin recruitment by antagonist added after agonist", "setting": "AT1R [2]; 0.1 μM Ang II pretreatment, absence or presence of sucrose", "value": "could not be reversed"}]}
{"compound": "CO[C@H]1C[C@@H]2CC[C@@H](C)[C@@](O)(O2)C(=O)C(=O)N2CCCC[C@H]2C(=O)O[C@H]([C@H](C)C[C@@H]2CC[C@@H](O)[C@H](OC)C2)CC(=O)[C@H](C)/C=C(\\C)[C@@H](O)[C@@H](OC)C(=O)[C@H](C)C[C@H](C)/C=C/C=C/C=C/1C", "note": "[rapamycin]", "values": [{"measurement": "increase of basal luminescence signal by addition of rapamycin", "setting": "FKBP / FRB", "value": "~30", "unit": "fold"}]}
{"compound": "OC[C@H]1O[C@@](CO)(O[C@H]2O[C@H](CO)[C@@H](O)[C@H](O)[C@H]2O)[C@@H](O)[C@@H]1O", "note": "[sucrose]", "values": [{"measurement": "effect of sucrose on agonist response", "setting": "AT1R [2]; 450 mM sucrose, Ang II response, plasma membrane", "value": "no effect on agonist response"}, {"measurement": "effect of sucrose on agonist effect", "setting": "AT1R [3]", "value": "dramatically blunted"}]}
{"compound": "CCN1CCCC1CNC(=O)c1cc(S(N)(=O)=O)ccc1OC", "note": "(stereo not shown) [sulpiride]", "values": [{"measurement": "effect of antagonist on agonist-induced luminescence", "setting": "D2R", "value": "strong decay in luminescence down to baseline"}]}
{"compound": "CCN(CC)C(=O)N[C@H]1C[C@@H]2c3cccc4[nH]cc(c34)C[C@H]2N(C)C1", "note": "[terguride, Terguride]", "values": [{"measurement": "EC50", "setting": "D2R", "value": 9.55, "unit": "nM"}, {"measurement": "efficacy compared with dopamine", "setting": "D2R", "value": 24, "unit": "%"}]}
